{
  "source": "paper PMC4192545",
  "about": "“Suramin Inhibits Hsp104 ATPase and Disaggregase Activity” (PLoS ONE, 2014)",
  "key": {"ClpB": {"molecular_target": "T1, ClpB (Escherichia coli, UniProt P63284)", "T1 construct": "made in house", "test": "ClpB luciferase reactivation assay", "format": "biochemical, E. coli", "protocol": "Luciferase reactivation was performed as described, [37]. To assemble aggregates, firefly luciferase (50 µM) in luciferase refolding buffer (LRB, 25 mM HEPES-KOH, 7.4, 150 mM KAOc, 10 mM MgAOc, 10 mM DTT) with 6 M urea was incubated at 30°C for 20 min. Luciferase was then rapidly diluted 100-fold into LRB, divided into 100 µL aliquots, snap frozen in liquid N2, and stored at −80°C. For reactivation assays, aggregated luciferase (50 nM) was incubated with Hsp104 (1 µM hexamer), plus 2.6 mM ATPγS, 2.6 mM ATP and an ATP regeneration system (1 mM creatine phosphate, 0.25 µM creatine kinase (Roche Applied Science)) for 90 minutes at 25°C. Luciferase assay system was purchased from Promega. Luciferase activity was assessed by luminescence measured on a Safire^2 microplate reader (Tecan, Männedorf, Switzerland). The half maximal inhibitory concentration (IC50) was calculating by fitting luciferase-refolding data at different Suramin concentrations with Prism (GraphPad Software, Inc., La Jolla, CA).\n(A) ClpB (0.25 µM monomer) was incubated for 10 min with ATP (1 mM) and varying concentrations of Suramin. The amount of Pi produced was measured by absorbance at 635 nm. Absorbance values were normalized to the absorbance produced by ClpB in the absence of inhibitor. Values represent mean ±S.D. (n = 6). (B) Urea-denatured firefly luciferase aggregates were incubated for 90 min at 25°C with ClpB (1 µM hexamer) in the presence of 1∶1 mixtures of ATP and ATPγS and varying concentrations of Suramin. Reactivation of luciferase was then determined by luminescence and converted to % WT ClpB activity (activity of 1 µM WT ClpB in the presence of ATP and ATPγS). Values represent mean ±S.D. (n = 6–12). TEXT PRINTED IN THE PICTURE: (A) Suramin: Normalized ATPase Activity: 1.03 ([Suramin] μM: 0); Normalized ATPase Activity: 0.76 ([Suramin] μM: 100); Normalized ATPase Activity: 0.78 ([Suramin] μM: 50); Normalized ATPase Activity: 0.60 ([Suramin] μM: 25); Normalized ATPase Activity: 0.59 ([Suramin] μM: 10); Normalized ATPase Activity: 0.65 ([Suramin] μM: 5); Normalized ATPase Activity: 1.01 ([Suramin] μM: 1) | (B) Suramin: Normalized Luciferase Refolding Activity: 1.00 ([Suramin] μM: 0); Normalized Luciferase Refolding Activity: 0.16 ([Suramin] μM: 100); Normalized Luciferase Refolding Activity: 1.03 ([Suramin] μM: 50); Normalized Luciferase Refolding Activity: 1.39 ([Suramin] μM: 25); Normalized Luciferase Refolding Activity: 2.23 ([Suramin] μM: 10); Normalized Luciferase Refolding Activity: 1.82 ([Suramin] μM: 5); Normalized Luciferase Refolding Activity: 1.02 ([Suramin] μM: 1)"}, "Hsp104^A503V": {"molecular_target": "T2, Hsp104^A503V (Saccharomyces cerevisiae, UniProt P31539, A503V)", "T2 construct": "made in house; host or cells: E. coli BL21-DE3 RIL", "T2 sequence (P31539 whole entry A503V)": "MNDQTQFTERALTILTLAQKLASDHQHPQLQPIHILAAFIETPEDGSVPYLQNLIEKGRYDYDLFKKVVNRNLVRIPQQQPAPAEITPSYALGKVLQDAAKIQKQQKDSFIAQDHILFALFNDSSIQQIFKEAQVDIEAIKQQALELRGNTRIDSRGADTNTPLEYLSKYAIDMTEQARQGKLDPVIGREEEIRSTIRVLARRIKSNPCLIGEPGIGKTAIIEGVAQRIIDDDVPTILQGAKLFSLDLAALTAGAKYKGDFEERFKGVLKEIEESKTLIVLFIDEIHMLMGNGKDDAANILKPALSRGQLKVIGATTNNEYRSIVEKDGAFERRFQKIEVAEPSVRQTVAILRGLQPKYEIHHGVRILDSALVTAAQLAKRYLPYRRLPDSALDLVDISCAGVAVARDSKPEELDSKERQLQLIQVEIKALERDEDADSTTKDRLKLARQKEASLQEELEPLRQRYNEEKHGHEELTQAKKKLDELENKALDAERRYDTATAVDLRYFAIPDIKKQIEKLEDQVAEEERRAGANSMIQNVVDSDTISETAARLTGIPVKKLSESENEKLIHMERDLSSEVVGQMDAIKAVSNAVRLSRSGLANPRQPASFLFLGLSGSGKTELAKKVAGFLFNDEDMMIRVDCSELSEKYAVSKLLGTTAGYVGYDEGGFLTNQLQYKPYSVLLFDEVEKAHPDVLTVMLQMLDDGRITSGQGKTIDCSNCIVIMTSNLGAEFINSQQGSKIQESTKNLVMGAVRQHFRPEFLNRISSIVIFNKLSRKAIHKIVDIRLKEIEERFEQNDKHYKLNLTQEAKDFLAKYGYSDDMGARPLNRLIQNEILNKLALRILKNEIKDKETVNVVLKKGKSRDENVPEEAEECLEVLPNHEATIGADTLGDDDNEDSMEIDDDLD", "test": "ATPase assay, Hsp104^A503V", "format": "biochemical, yeast", "protocol": "(§1) Wild-type or mutant Hsp104 (0.25 µM monomer) in ATPase buffer (20 mM HEPES-KOH pH 7.4, 20 mM NaCl and 10 mM MgCl2) was incubated for 60 or 10 min at 25°C in the presence of ATP (1 mM) as noted. ATPase activity was assessed by the release of inorganic phosphate determined by using a malachite green phosphate detection kit (Innova).\n(§2) Figure 7 Hsp104 variants respond differently to Suramin than Hsp104^WT. (A) Hsp104 variants (0.25 µM monomer) were incubated for 10 min with ATP (1 mM) and varying concentrations of Suramin. The amount of Pi produced was measured by absorbance at 635 nm. Absorbance values were normalized to the absorbance produced by each Hsp104 variant in the absence of inhibitor. Values represent mean ±S.D. (n = 6). (B) Urea-denatured firefly luciferase aggregates were incubated for 90 min at 25°C with Hsp104 variants (1 µM hexamer) plus 1∶1 mixtures of ATP and ATPγS (or ATP alone) and varying concentrations of Suramin. Luciferase reactivation was then determined and normalized to untreated disaggregase activity for each variant in the presence of ATPγS: ATP (or ATP alone). 1∶1 mixtures of ATP and ATPγS were used for Hsp104^WT and Hsp104^T317A, while ATP alone was used for Hsp104^A503V and Hsp104^N728A. Values represent mean ±S.D. (n = 6–12)."}, "Hsp104^T317A": {"molecular_target": "T3, Hsp104^T317A (Saccharomyces cerevisiae, UniProt P31539, T317A)", "T3 construct": "made in house; host or cells: E. coli BL21-DE3 RIL", "T3 sequence (P31539 whole entry T317A)": "as the sequence (P31539 whole entry A503V) above, with T317A, V503A counted along it", "test": "ATPase assay, Hsp104^T317A", "format": "biochemical, yeast", "details": "read-out: Hsp104^T317A ATPase activity relative to uninhibited protein", "protocol": "as §1, §2"}},
  "data": [
    {"compound": "Cc1ccc(C(=O)Nc2ccc(S(=O)(=O)O)c3cc(S(=O)(=O)O)cc(S(=O)(=O)O)c23)cc1NC(=O)c1cccc(NC(=O)Nc2cccc(C(=O)Nc3cc(C(=O)Nc4ccc(S(=O)(=O)O)c5cc(S(=O)(=O)O)cc(S(=O)(=O)O)c45)ccc3C)c2)c1", "note": "[Suramin]", "values": [
      {"measurement": "Normalized Luciferase Refolding Activity", "setting": "ClpB; ClpB 1 µM hexamer, Suramin 100 µM, 90 min 25°C, ATP:ATPγS 1:1, Figure 5B", "value": 0.16},
      {"measurement": "Normalized Luciferase Refolding Activity", "setting": "ClpB; ClpB, Suramin 1 µM, Figure 5B", "value": 1.02},
      {"measurement": "Normalized Luciferase Refolding Activity", "setting": "ClpB; ClpB, Suramin 5 µM, Figure 5B", "value": 1.82},
      {"measurement": "Normalized Luciferase Refolding Activity", "setting": "ClpB; ClpB, Suramin 10 µM, Figure 5B", "value": 2.23},
      {"measurement": "Normalized Luciferase Refolding Activity", "setting": "ClpB; ClpB, Suramin 25 µM, Figure 5B", "value": 1.39},
      {"measurement": "Normalized Luciferase Refolding Activity", "setting": "ClpB; ClpB, Suramin 50 µM, Figure 5B", "value": 1.03},
      {"measurement": "ClpB refolding power retained", "setting": "ClpB; Suramin 50 µM", "value": 100, "unit": "%"},
      {"measurement": "remaining activity at 100 µM", "setting": "ClpB; Suramin 100 µM, read-out: ClpB disaggregase activity remaining", "value": 16, "unit": "%"},
      {"measurement": "Effect on ClpB luciferase reactivation", "setting": "ClpB; low concentrations of Suramin", "value": "increased the amount of luciferase ClpB was able to reactivate"},
      {"measurement": "Inhibitor concentration of maximal ATPase inhibition", "setting": "Hsp104^A503V; Hsp104^A503V", "value": 25, "unit": "µM"},
      {"measurement": "activity at 25 µM", "setting": "Hsp104^A503V; read-out: Hsp104^A503V ATPase activity relative to uninhibited", "value": 18, "unit": "%"},
      {"measurement": "activity at 100 µM", "setting": "Hsp104^T317A", "value": "~65", "unit": "%"}
    ]}
  ]
}
